Where two headings read alike, the source gives them in different places. Where a SMILES comes first, the peptide text is derived from it. Bridges are numbered along the chain shown (N, C = ends). [ ]: non-standard residue; d: D form. ξ: configuration not given here. ξE = NC(CCC(=O)O)C(=O)O; ξQ = NC(=O)CCC(N)C(=O)O; ξK = NCCCCC(N)C(=O)O; Ahx = NCCCCCC(=O)O; ξS = NC(CO)C(=O)O
Tests used:
[1] = biological target: T1, PD1-PDL1 interaction (Homo sapiens, UniProt Q9NZQ7); assay: CFSE mouse splenocyte proliferation assay (FACS), co-culture with MDA-MB-231 tumor cells expressing PD-L1; type: cell-based; conditions: for % Splenocyte proliferation: mouse splenocytes stimulated with anti-CD3/CD28, co-culture with MDAMB231 over expressing PDL1, 72 hrs, background 13, stimulated splenocytes 72
T1 construct: endogenous in cells; host or cells: MDA-MB-231 tumor cells (PD-L1); primary splenocytes of C57BL/6 mice (PD-1)
Procedure: The effect of PD1 derived peptides on mouse splenocyte proliferation inhibited by PDL1/PDL2 or tumor cells expressing PDL; analyzed by Fluorescence Activated Cell Shorting (FACS) method using CFSE labeling. Mouse splenocytes harvested from 6-8 weeks old C57 BL6 mice; RPMI 1640 (GIBCO, Cat #11875); DMEM with high glucose (GIBCO, Cat # D6429); Fetal Bovine Serum [Hyclone, Cat # SH30071.03]; Penicillin (10000 unit/ml)-Streptomycin (10,000 μg/ml) Liquid (GIBCO, Cat #15140-122); MEM Sodium Pyruvate solution 100 mM (100×), Liquid (GIBCO, Cat #11360); Nonessential amino acid (GIBCO, Cat #11140); L-Glutamine (GIBCO, Cat #25030); Anti-CD3 antibody (eBiosciences—16-0032); Anti-CD28 antibody (eBiosciences—16-0281); ACK lysis buffer (1 mL) (GIBCO, Cat #—A10492); Histopaque (density-1.083 gm/ml) (SIGMA 10831); Trypan blue solution (SIGMA-T8154); 2 ml Norm Ject Luer Lock syringe—(Sigma 2014-12); 40 μm nylon cell strainer (BD FALCON 35230); Hemacytometer (Bright line-SIGMA Z359629); FACS Buffer (PBS/0.1% BSA): Phosphate Buffered Saline (PBS) pH 7.2 (HiMedia TS1006) with 0.1% Bovine Serum Albumin (BSA) (SIGMA A7050) and sodium azide (SIGMA 08591); 5 mM stock solution of CFSE: CFSE stock solution was prepared by diluting lyophilized CFSE with 180 μL of Di methyl Sulfoxide (DMSO C2H6SO, SIGMA-D-5879) and aliquoted in to tubes for further use. Working concentrations were titrated from 10 μM to 1 μM. (eBioscience—650850-85); 0.05% Trypsin and 0.02% EDTA (SIGMA 59417C); 96-well format ELISA plates (Corning CLS3390); BD FACS caliber (E6016). Splenocytes harvested in a 50 ml falcon tube by mashing spleen in a 40 μm cell strainer were further treated with 1 ml ACK lysis buffer for 5 mins at room temperature. After washing with 9 ml of RPMI complete media, cells were re-suspended in 3 ml of 1×PBS in a 15 ml tube. 3 ml of histopaque was added very carefully to the bottom of the tube without disturbing overlaying splenocyte suspension. Spin the tube at 800×g for 20 mins at room temperature. Opaque layer of lymphocytes was collected carefully without disturbing/mixing any of the layers. Cells were washed twice with cold 1×PBS followed by total cell counting using trypan blue exclusion method and used further for cell based assays. Tumor cells were cultured and maintained in high glucose complete DMEM media. 1×10^5 tumor cells were plated in 96 well plates along with required conc. of PD1 derived peptide and allowed to adhere at 37° C. for 4 hrs. 1×10^6 cells/ml of harvested splenocytes were treated with 5 μM of CFSE in pre warmed 1×PBS/0.1% BSA solution for 10 mins at 37° C. Excess CFSE was quenched using 5 volumes of ice-cold culture media to the cells and incubated on ice for 5 mins. CFSE labeled splenocytes were further given three washes with ice cold complete DMEM media. CFSE labeled 1×10^5 splenocytes were added to above wells containing tumors cells and PD1 peptides. Splenocytes were stimulated with anti-CD3 and anti-CD28 antibody (1 μg/ml each) and the co-culture was further incubated for 72 hrs at 37° C. with 5% CO2. Cells were harvested and washed thrice with ice cold FACS buffer and % proliferation was analyzed using a FACS caliber with 488 nm excitation and 521 nm emission filters. Each experimental condition was carried out in triplicates and each experiment at least carried out three times % splenocyte proliferation was analyzed using cell quest FACS program and fold induction was calculated by normalizing individual values to % background proliferation Fold Induction=% splenocyte proliferation/% background proliferation Stimulated splenocytes: Splenocytes+anti-CD3/CD28 stimulation Background proliferation: Splenocytes+anti-CD3/CD28+PDL or Tumor Compound effect was examined by adding required conc. of compound to anti-CD3/CD28 stimulated splenocytes in presence of ligand (PDL-1/PDL-2) or tumor cells.

[2] = tested on: B16F10 cells; assay: In vivo efficacy on lung metastasis in B16F10 subcutaneous melanoma model; conditions: C57/Black6 female mice, 5 mg/kg subcutaneously once daily for fourteen days
Procedure: C57/Black6 female mice (Aurigene, Bangalore, India) aged 6 to 8 weeks were used for the experiment. Animals were acclimatized for a week in the experimental room before conducting the experiment. On day 0, B16F10 cells grown in DMEM containing 10% FBS at 70 to 75% confluency were harvested and 0.1×10^6 cells per animal were injected to mice subcutaneously on the right flank region. On day 1, peptide (Compound #2) at 5 mg/kg dose dissolved in PBS, pH 7.4 was dosed subcutaneously at the rate of 10 ml/kg volume for fourteen days once daily. Vehicle control group of mice received only saline. Taxol at 5 MPK (i.p) with qd dosing was used as reference in this study. Each group consisted of ten animals. Body weight and clinical signs were recorded daily. […] At the end of 14 days of dosing period lung was harvested and analysed for metastasis by counting the black nodules.

[3] = % splenocyte proliferation/% background proliferation, MDAMB231 over expressing PDL1, background 1.0, stimulated splenocytes 5.5

T1 sequence (Q9NZQ7 19-290): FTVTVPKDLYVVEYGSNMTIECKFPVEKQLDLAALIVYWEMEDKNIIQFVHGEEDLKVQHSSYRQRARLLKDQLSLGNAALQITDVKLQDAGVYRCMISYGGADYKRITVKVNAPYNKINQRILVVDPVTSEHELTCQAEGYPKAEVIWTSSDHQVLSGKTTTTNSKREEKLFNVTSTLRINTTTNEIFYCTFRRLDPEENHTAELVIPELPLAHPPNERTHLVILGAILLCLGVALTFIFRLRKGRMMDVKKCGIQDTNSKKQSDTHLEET

| Compound | % Splenocyte proliferation [1] | clinical signs [2] | Fold induction [1] | Fold induction [1, 3] | body weight reduction during the period of dosing [2] |
| --- | --- | --- | --- | --- | --- |
| C[C@@H](O)[C@@H]1NC(=O)C(NC(=O)[C@@H](N)CO)CCCCNC(=O)CCC(C(=O)N[C@@H](CO)C(=O)N[C@@H](Cc2ccccc2)C(N)=O)NC(=O)[C@H](CO)NC1=O (stereo partly shown) [Compound 1] (H-S[ξK]TS[ξE]SF-NH2; lactam 2-5) | 60% | – | 4.6 | – | – |
| CC[C@H](C)[C@H](NC(=O)[C@H](CO)NC(=O)C1CCCCNC(=O)CCC(NC(=O)[C@@H](N)CO)C(=O)N[C@@H]([C@@H](C)O)C(=O)N[C@@H](CO)C(=O)N1)C(N)=O (stereo partly shown) [Compound 5] (H-S[ξE]TS[ξK]SI-NH2; lactam 2-5; N-terminus assumed) | 42% | – | – | 3.2 | – |
| CC[C@H](C)[C@H](N)C(=O)NC1CCC(=O)NCCCCC(C(=O)N[C@@H](CO)C(=O)N[C@@H](Cc2ccccc2)C(N)=O)NC(=O)[C@H](CO)NC(=O)[C@H]([C@@H](C)O)NC1=O (stereo partly shown) [Compound 6] (H-I[ξE]TS[ξK]SF-NH2; lactam 2-5; N-terminus assumed) | 55% | – | – | 4.2 | – |
| CC(C)[C@H](NC(=O)C1CCCCNC(=O)CCC(NC(=O)[C@@H](N)CO)C(=O)N[C@@H]([C@@H](C)O)C(=O)N[C@@H](CO)C(=O)N1)C(=O)N[C@@H](Cc1ccccc1)C(N)=O (stereo partly shown) [Compound 7] (H-S[ξE]TS[ξK]VF-NH2; lactam 2-5; N-terminus assumed) | 52% | – | – | 4.0 | – |
| CC[C@H](C)[C@H](N)C(=O)NC1CCC(=O)NCCCCC(C(=O)N[C@@H](CO)C(=O)NC(CCC(N)=O)C(=O)O)NC(=O)[C@H](CO)NC(=O)[C@H](CCSC)NC1=O (stereo partly shown) [Compound 11] (H-I[ξE]MS[ξK]S[ξQ]-OH; lactam 2-5; N-terminus assumed) | 54% | – | – | 4.2 | – |
| CC[C@H](C)[C@H](N)C(=O)NC1CCC(=O)NCCCCC(C(=O)N[C@H](C(=O)NC(CCC(N)=O)C(=O)O)C(C)C)NC(=O)[C@H](CO)NC(=O)[C@H](CCSC)NC1=O (stereo partly shown) [Compound 12] (H-I[ξE]MS[ξK]V[ξQ]-OH; lactam 2-5) | 39% | – | – | 3.0 | – |

Further lines, with some results ahead:

| % Splenocyte proliferation [1] | clinical signs [2] | Compound | Fold induction [1] | Fold induction [1, 3] | body weight reduction during the period of dosing [2] |
| --- | --- | --- | --- | --- | --- |
| 57% | no clinical signs observed | C[C@@H](O)[C@@H]1NC(=O)[C@@H](NC(=O)[C@@H](N)CO)CCC(=O)NCCCC[C@@H](C(=O)N[C@@H](CO)C(=O)N[C@@H](Cc2ccccc2)C(N)=O)NC(=O)[C@H](CO)NC1=O [Compound 2] (H-SETSKSF-NH2; lactam 2-5) | – | 4.3 | no body weight reduction |
| 36% | – | C[C@@H](O)[C@@H]1NC(=O)C(NC(=O)[C@@H](N)CCC(=O)O)CCC(=O)NCCCCC(C(=O)N[C@@H](CO)C(=O)N[C@@H](Cc2ccccc2)C(N)=O)NC(=O)[C@H](CO)NC1=O (stereo partly shown) [Compound 4] (H-E[ξE]TS[ξK]SF-NH2; lactam 2-5; N-terminus assumed) | – | 2.8 | – |
| 55% | – | C[C@@H](O)[C@@H]1NC(=O)[C@H](CC(N)=O)NC(=O)C(CO)NC(=O)C(CCC(N)=O)NC(=O)[C@H](Cc2ccccc2)NC(=O)[C@H](CO)NC(=O)[C@H](CCC(=O)O)NC(=O)[C@H](CO)NC1=O (stereo partly shown) [Compound 14] (cyclo(ESF[ξQ][ξS]NTS)) | – | 4.2 | – |
| 53% | – | C[C@@H](O)[C@@H]1NC(=O)[C@H](CC(N)=O)NC(=O)C(CO)NC(=O)C(CCC(N)=O)NC(=O)CCCCCNC(=O)[C@H](Cc2ccccc2)NC(=O)[C@H](CO)NC(=O)[C@H](CCC(=O)O)NC(=O)[C@H](CO)NC1=O (stereo partly shown) [Compound 15] (cyclo([Ahx][ξQ][ξS]NTSESF)) | 4 | – | – |
| 36% | – | C[C@@H](O)[C@@H]1NC(=O)[C@H](CCC(=O)O)NC(=O)C(CO)NC(=O)C(CCC(N)=O)NC(=O)[C@H](Cc2ccccc2)NC(=O)[C@H](CO)NC(=O)[C@H](CCCCN)NC(=O)[C@H](CO)NC1=O (stereo partly shown) [Compound 16] (cyclo(ETSKSF[ξQ][ξS])) | – | 2.8 | – |
| 42% | – | C[C@@H](O)[C@@H]1NC(=O)[C@H](CCC(=O)O)NC(=O)C(CO)NC(=O)CCCCCNC(=O)C(CCC(N)=O)NC(=O)[C@H](Cc2ccccc2)NC(=O)[C@H](CO)NC(=O)[C@H](CCCCN)NC(=O)[C@H](CO)NC1=O (stereo partly shown) [Compound 17] (cyclo([Ahx][ξS]ETSKSF[ξQ])) | – | 3.2 | – |
| 36% | – | C[C@@H](O)[C@@H]1NC(=O)[C@H](CCC(=O)O)NC(=O)C(CO)NC(=O)CCC(C(N)=O)NC(=O)[C@H](Cc2ccccc2)NC(=O)[C@H](CO)NC(=O)[C@H](CCCCN)NC(=O)[C@H](CO)NC1=O (stereo partly shown) [Compound 20] ([ξS]ETSKSF[ξE]-NH2; lactam N-8) | – | 2.8 | – |

From patent US9422339B2, “Immunomodulating cyclic compounds” (Aurigene Discovery Technologies Limited, priority 2012, dated 2016)
